Source: PubChem BioAssay (NCI)
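The compound was tested at five concentrations on cells cultured in 96-well plates, with a 48-hour exposure period. Abbreviation: GI50, concentration required for 50% inhibition of growth. TGI denotes the concentration required for complete inhibition of growth.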

Columns and labels:
Test in all cases: growth of human tumour cells (NCI), 48 h
[1] = test system: OVCAR-8 ovarian
[2] = test system: RPMI-8226 leukemia
[3] = test system: HOP-92 NSCLC
[4] = test system: EKVX NSCLC
[5] = test system: OVCAR-3 ovarian
[6] = test system: IGROV1 ovarian
[7] = test system: LOX IMVI melanoma
[8] = test system: SW-620 colon
[9] = test system: SF-268 CNS
[10] = test system: RXF 393 renal

SMILES | GI50 [1] [µM] | TGI [1] [µM] | GI50 [2] [µM] | TGI [2] [µM] | GI50 [3] [µM] | TGI [3] [µM] | GI50 [4] [µM] | TGI [4] [µM] | GI50 [5] [µM] | TGI [5] [µM] | GI50 [6] [µM] | TGI [6] [µM] | GI50 [7] [µM] | TGI [7] [µM] | GI50 [8] [µM] | TGI [8] [µM] | GI50 [9] [µM] | TGI [9] [µM] | GI50 [10] [µM] | TGI [10] [µM]
O=C(CSC(c1ccccc1)c1ccccc1)N/N=C/c1ccccc1Cl | 17.9 | > 79.4 | 8.73 | > 40.6 | 7.7 | 37.2 | 2.75 | > 34.1 | 15.6 | 57.3 | 8.07 | > 55.6 | 31.1 | > 100 | 34.7 | > 100 | 25.5 | 78.6 | 10.2 | 55.9
Cc1cc(Cl)nc(N(CCCNc2ccnc3cc(Cl)ccc23)Cc2cccs2)n1 | 2.06 | 10.4 | 0.83 | 3.84 | 1.74 | 7.78 | 1.99 | 12.7 | 2.19 | 13.4 | 0.856 | 6.2 | 1.22 | 2.98 | 1.1 | 8.75 | 3.36 | 16.8 | 1.37 | 5.22
CC(C)c1[nH]nc2c(NCc3ccc(-c4ccccn4)cc3)nc(SCCN(C)C)nc12 | 0.0416 | 15.5 | 0.0195 | 0.101 | 0.0585 | 0.468 | 0.0494 | 2.54 | 0.0754 | 10.9 | 0.0579 | 13.7 | 0.123 | 11.1 | < 0.0135 | 12.1 | < 0.018 | 3.68 | < 0.0136 | 0.0354
O=C(Nc1ccc([N+](=O)[O-])cc1[N+](=O)[O-])C(=O)C(C(=O)c1ccc(Cl)c(Cl)c1)C1OC(=O)c2ccccc21 (stereo not given) | – | 45.5 | – | > 100 | – | 9.46 | – | > 100 | – | 93.1 | – | 84.7 | – | 41.4 | – | 54.6 | – | 76.3 | – | 24.8
Cc1ccc(-c2c3c(nn2-c2ccc(S(=O)(=O)NC(=O)NC4CCCCC4)cc2)-c2ccccc2C3)cc1 | 26.2 | 70.7 | 2.44 | 7.42 | 2.65 | 15.8 | 11.8 | 25.4 | 17.7 | 35.7 | 12.9 | 27.9 | 1.82 | 3.73 | 2.65 | 6.31 | 11.5 | 28.6 | 23.3 | 63.1
CCOC(=O)/C(C#N)=C\Sc1ccccc1 | – | 27.3 | – | > 100 | – | > 100 | – | > 100 | – | 39.2 | – | 23.2 | – | 21.4 | – | 72.6 | – | 28.9 | – | 35.1
COC(=O)c1c2c(c(C)[n+]([O-])c1C)C(=O)C(NCc1ccc(F)cc1)=CC2=O | 1.59 | 7.78 | 2 | 6.82 | 2.31 | 4.61 | 1.66 | 4.14 | 0.319 | 1.11 | 1.15 | 2.76 | 1.94 | 6.32 | 1.17 | 3.2 | 2.51 | 9.08 | 1.56 | 3.51
